Results taken from PubChem BioAssay (NCI).
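Following 48 hours of exposure in 96-well plates, responses at five concentrations were used to interpolate endpoints linearly. At the GI50, growth is halved. At the TGI there is no net growth.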

How the values were obtained:
Experiment in all cases: inhibition of tumour cell growth, NCI panel, 48 h
CAKI-1 renal = test system: CAKI-1 renal
TK-10 renal = test system: TK-10 renal
DU-145 prostate = test system: DU-145 prostate
CCRF-CEM leukemia = test system: CCRF-CEM leukemia
NCI/ADR-RES ovarian = test system: NCI/ADR-RES ovarian
OVCAR-4 ovarian = test system: OVCAR-4 ovarian
786-0 renal = test system: 786-0 renal
SK-MEL-2 melanoma = test system: SK-MEL-2 melanoma
PC-3 prostate = test system: PC-3 prostate
ACHN renal = test system: ACHN renal
SK-MEL-5 melanoma = test system: SK-MEL-5 melanoma
EKVX NSCLC = test system: EKVX NSCLC
T-47D breast = test system: T-47D breast
MCF7 breast = test system: MCF7 breast
HT29 colon = test system: HT29 colon
HOP-62 NSCLC = test system: HOP-62 NSCLC
SK-MEL-28 melanoma = test system: SK-MEL-28 melanoma
NCI-H522 lung = test system: NCI-H522 lung
MOLT-4 leukemia = test system: MOLT-4 leukemia
SF-268 CNS = test system: SF-268 CNS
HCC-2998 colon = test system: HCC-2998 colon
NCI-H23 lung = test system: NCI-H23 lung
OVCAR-3 ovarian = test system: OVCAR-3 ovarian
MDA-MB-468 breast = test system: MDA-MB-468 breast
HL-60(TB) leukemia = test system: HL-60(TB) leukemia
BT-549 breast = test system: BT-549 breast
OVCAR-8 ovarian = test system: OVCAR-8 ovarian
U251 CNS = test system: U251 CNS
HOP-92 NSCLC = test system: HOP-92 NSCLC
RPMI-8226 leukemia = test system: RPMI-8226 leukemia
HS 578T breast = test system: HS 578T breast
LOX IMVI melanoma = test system: LOX IMVI melanoma
COLO 205 colon = test system: COLO 205 colon
SF-539 CNS = test system: SF-539 CNS
NCI-H226 lung = test system: NCI-H226 lung
A498 renal = test system: A498 renal
NCI-H460 lung = test system: NCI-H460 lung
UACC-257 melanoma = test system: UACC-257 melanoma
HCT-116 colon = test system: HCT-116 colon
UO-31 renal = test system: UO-31 renal
RXF 393 renal = test system: RXF 393 renal
MDA-MB-231 breast = test system: MDA-MB-231 breast
IGROV1 ovarian = test system: IGROV1 ovarian
MALME-3M melanoma = test system: MALME-3M melanoma
OVCAR-5 ovarian = test system: OVCAR-5 ovarian
SNB-19 CNS = test system: SNB-19 CNS
UACC-62 melanoma = test system: UACC-62 melanoma
SR leukemia = test system: SR leukemia
SW-620 colon = test system: SW-620 colon
SN12C renal = test system: SN12C renal
HCT-15 colon = test system: HCT-15 colon
MDA-MB-435 = test system: MDA-MB-435
K-562 leukemia = test system: K-562 leukemia
A549 NSCLC = test system: A549 NSCLC
SK-OV-3 ovarian = test system: SK-OV-3 ovarian
KM12 colon = test system: KM12 colon
SF-295 CNS = test system: SF-295 CNS
M14 melanoma = test system: M14 melanoma

CC(=O)Nc1ccc(-n2cnc3cc(-c4ccc(O)cc4)ccc32)cc1C(F)(F)F
GI50 (CAKI-1 renal): 8.34 µM
TGI (CAKI-1 renal): 42 µM
GI50 (TK-10 renal): 14.8 µM
TGI (TK-10 renal): 34.3 µM
GI50 (DU-145 prostate): 12.2 µM
TGI (DU-145 prostate): 46.9 µM
GI50 (CCRF-CEM leukemia): 6.65 µM
TGI (CCRF-CEM leukemia): > 100 µM
GI50 (NCI/ADR-RES ovarian): 2.25 µM
TGI (NCI/ADR-RES ovarian): 7.05 µM
GI50 (OVCAR-4 ovarian): 24.1 µM
TGI (OVCAR-4 ovarian): > 100 µM
GI50 (786-0 renal): 8.92 µM
TGI (786-0 renal): 39.1 µM
GI50 (SK-MEL-2 melanoma): 2.82 µM
TGI (SK-MEL-2 melanoma): 9.73 µM
GI50 (PC-3 prostate): 8.15 µM
TGI (PC-3 prostate): 39.5 µM
GI50 (ACHN renal): 6.62 µM
TGI (ACHN renal): 43.7 µM
GI50 (SK-MEL-5 melanoma): 5.54 µM
TGI (SK-MEL-5 melanoma): 32.9 µM
GI50 (EKVX NSCLC): 9.92 µM
TGI (EKVX NSCLC): 33.8 µM
GI50 (T-47D breast): 4.73 µM
TGI (T-47D breast): 43.5 µM
GI50 (MCF7 breast): 4.13 µM
TGI (MCF7 breast): 48.5 µM
GI50 (HT29 colon): 6.03 µM
TGI (HT29 colon): > 100 µM
GI50 (HOP-62 NSCLC): 8.41 µM
TGI (HOP-62 NSCLC): 30 µM
GI50 (SK-MEL-28 melanoma): 6.4 µM
TGI (SK-MEL-28 melanoma): 35.3 µM
GI50 (NCI-H522 lung): 1.6 µM
TGI (NCI-H522 lung): 4.73 µM
GI50 (MOLT-4 leukemia): 4.3 µM
TGI (MOLT-4 leukemia): > 100 µM
GI50 (SF-268 CNS): 7.57 µM
TGI (SF-268 CNS): 84.4 µM
GI50 (HCC-2998 colon): 5.31 µM
TGI (HCC-2998 colon): 26.8 µM
GI50 (NCI-H23 lung): 6.2 µM
TGI (NCI-H23 lung): 33.1 µM
GI50 (OVCAR-3 ovarian): 15.7 µM
TGI (OVCAR-3 ovarian): > 100 µM
GI50 (MDA-MB-468 breast): 0.225 µM
TGI (MDA-MB-468 breast): 10.8 µM
GI50 (HL-60(TB) leukemia): 2.9 µM
TGI (HL-60(TB) leukemia): 13.5 µM
GI50 (BT-549 breast): 4.76 µM
TGI (BT-549 breast): 20.3 µM
GI50 (OVCAR-8 ovarian): 6.6 µM
TGI (OVCAR-8 ovarian): 68.1 µM
GI50 (U251 CNS): 4.99 µM
TGI (U251 CNS): 32.4 µM
GI50 (HOP-92 NSCLC): 11.6 µM
TGI (HOP-92 NSCLC): 29.3 µM
GI50 (RPMI-8226 leukemia): 4.73 µM
TGI (RPMI-8226 leukemia): 27.6 µM
GI50 (HS 578T breast): 15.3 µM
TGI (HS 578T breast): 98.7 µM
GI50 (LOX IMVI melanoma): 5.71 µM
TGI (LOX IMVI melanoma): 19.1 µM
GI50 (COLO 205 colon): 11.2 µM
TGI (COLO 205 colon): 42.3 µM
GI50 (SF-539 CNS): 6.25 µM
TGI (SF-539 CNS): 46.7 µM
GI50 (NCI-H226 lung): 13.2 µM
TGI (NCI-H226 lung): 58.6 µM
GI50 (A498 renal): 25.6 µM
TGI (A498 renal): 80.5 µM
GI50 (NCI-H460 lung): 4.81 µM
TGI (NCI-H460 lung): > 100 µM
GI50 (UACC-257 melanoma): 10.6 µM
TGI (UACC-257 melanoma): 39.3 µM
GI50 (HCT-116 colon): 6.86 µM
TGI (HCT-116 colon): > 100 µM
GI50 (UO-31 renal): 4.84 µM
TGI (UO-31 renal): 21.1 µM
GI50 (RXF 393 renal): 4.31 µM
TGI (RXF 393 renal): 18.5 µM
GI50 (MDA-MB-231 breast): 10 µM
TGI (MDA-MB-231 breast): 38.2 µM
GI50 (IGROV1 ovarian): 14.5 µM
TGI (IGROV1 ovarian): 87 µM
GI50 (MALME-3M melanoma): 6.92 µM
TGI (MALME-3M melanoma): 51.5 µM
GI50 (OVCAR-5 ovarian): 12.2 µM
TGI (OVCAR-5 ovarian): 34.4 µM
GI50 (SNB-19 CNS): 14 µM
TGI (SNB-19 CNS): > 100 µM
GI50 (UACC-62 melanoma): 3.82 µM
TGI (UACC-62 melanoma): 20.6 µM
GI50 (SR leukemia): 2.58 µM
TGI (SR leukemia): 12.5 µM
GI50 (SW-620 colon): 6.29 µM
TGI (SW-620 colon): > 100 µM
GI50 (SN12C renal): 4.26 µM
TGI (SN12C renal): 34.5 µM
GI50 (HCT-15 colon): 4.75 µM
TGI (HCT-15 colon): > 100 µM
GI50 (MDA-MB-435): 2.21 µM
TGI (MDA-MB-435): 6.17 µM
GI50 (K-562 leukemia): 4.53 µM
TGI (K-562 leukemia): > 100 µM
GI50 (A549 NSCLC): 5.34 µM
TGI (A549 NSCLC): > 100 µM
GI50 (SK-OV-3 ovarian): 17 µM
TGI (SK-OV-3 ovarian): 61.1 µM
GI50 (KM12 colon): 3.93 µM
TGI (KM12 colon): 50.7 µM
GI50 (SF-295 CNS): 5.47 µM
TGI (SF-295 CNS): 27.5 µM
GI50 (M14 melanoma): 4.25 µM
TGI (M14 melanoma): 30.6 µM
